Here are results for one substance from article PMC9448375 (Drug Delivery, 2022).

Series [1] relates to trypsin, chymotrypsin, lipase, bile salt. Briefly: Stability against GI enzymes in simulated intestinal fluid (SIF). The class given is in vitro ADME. The following applies: SIF: trypsin 5,000 BAEE U/mL, chymotrypsin 20 IU/mL, lipase 400 IU/mL, bile salt 10 mM, Tris 50 mM pH 8.0; mixed 1:1 with sample (INS 0.2 mg/mL); 37 °C, 100 rpm; 0–240 min; HPLC; first-order fit; n = 3.
Method: Simulated intestinal fluid (SIF) was prepared by adding trypsin (5,000 BAEE U/mL), chymotrypsin (20 IU/mL), lipase (400 IU/mL), and bile salt (10 mM) to the Tris buffer (50 mM, pH 8.0). […] Then, 250 µL of either SGF or SIF was added to the 250 µL of each formulation for enzymatic degradation. The mixture was transferred to a shaking incubator (SI-900R; JeioTech, Daejeon, Korea) and incubated at 37 °C under shaking (100 rpm). Finally, 500 mL of cooled 0.1% TFA in methanol was added at predetermined time points (0, 5, 15, 30, 60, and 120 min) to quench the enzymatic reaction. For intestinal enzyme study, the reaction was continued for 240 min.
The test system of series [2] is streptozotocin-induced diabetic Sprague–Dawley rats. Briefly: Pharmacodynamic study in diabetic rats (blood glucose level). To be noted: for AAC0–8h (area above the blood glucose level curve, % of initial, 0–8 h) / BGLmin (minimum blood glucose level, % of initial levels) / Tmin (time to reach BGLmin): mean ± SD, n = 5–7. Format: in vivo, rat. As to the method: To establish animal models of type 1 diabetes mellitus, male Sprague–Dawley rats were injected intraperitoneally with freshly prepared single doses of streptozotocin (60 mg/kg) dissolved in citrate buffer (0.1 M, pH 4.5). The successful induction of diabetes was corroborated by an increase in blood glucose levels after five days. Only the rats with fasting blood glucose levels higher than 250 mg/dL were considered diabetic.
All rats were fasted for 12 h before the experiment, with free access to water. […] Subsequently, blood samples were collected from the tail vein at different time intervals (0, 0.5, 1, 1.5, 2, 3, 4, 5, 6, and 8 h) and tested using a glucometer (GreenDoctor, GREENCROSS MEDIS Co., Chungnam, Korea). Based on the blood glucose level at 0 h (initial), each blood glucose level was converted to the relative level (% of initial). A value of 100% of the relative level was chosen as a reference point (upper limit) for the determination of the area above the blood glucose (% of initial)–time curve (AAC) values for decreased blood glucose levels.

Series [3] in a line: log P by shake-flask method. The class given is physicochemical. The following applies: shake-flask n-octanol/distilled water, mutually pre-saturated; 25 °C, 24 h, 50 rpm; HPLC of INS in both phases; HIP complexes at INS:counterion 1:6; mean, n = 3. As to the method:
The log P values of different HIP complexes were determined by the shake-flask method (Zhang et al., [2021]). Prior to the experiment, distilled water and n-octanol were poured into a separatory funnel, vigorously shaken, and then allowed to settle for 24 h to mutually saturate. Stock solutions of HIP complexes in the saturated n-octanol were prepared and mixed with pre-saturated distilled water at a 1:10 (vol/vol) ratio. INS was dissolved in saturated distilled water and then mixed with pre-saturated n-octanol. The tube was incubated at 25 °C for 24 h with continuous shaking (50 rpm) and allowed to separate for 1 h, after which it was centrifuged at 16,000g for 10 min. Afterward, samples from both phases were carefully analyzed by HPLC.

In series [4] the target is T1, pepsin (Sus scrofa, UniProt P00791).
T1 construct: purchased Sigma–Aldrich Chemical Co. (St. Louis, MO, USA)
The experiment in a line: Stability against GI enzymes in simulated gastric fluid (SGF). The class given is in vitro ADME. To be noted: SGF: pepsin 2,000 U/mL in pH 1.2 solution, mixed 1:1 with sample (INS 0.2 mg/mL), 37 °C, 100 rpm, HPLC, n = 3. As to the method:
Simulated gastric fluid (SGF) was prepared by adding pepsin to pH 1.2 solution to a concentration of 2,000 U/mL. Simulated intestinal fluid (SIF) was prepared by adding trypsin (5,000 BAEE U/mL), chymotrypsin (20 IU/mL), lipase (400 IU/mL), and bile salt (10 mM) to the Tris buffer (50 mM, pH 8.0). […] Then, 250 µL of either SGF or SIF was added to the 250 µL of each formulation for enzymatic degradation. The mixture was transferred to a shaking incubator (SI-900R; JeioTech, Daejeon, Korea) and incubated at 37 °C under shaking (100 rpm). Finally, […] of cooled 0.1% TFA in methanol was added at predetermined time points (0, 5, 15, 30, 60, and 120 min) to quench the enzymatic reaction. For intestinal enzyme study, the reaction was continued for 240 min. Finally, the amount of INS remaining in the obtained samples was quantified by HPLC, as described earlier.

T1 sequence (P00791 60-385): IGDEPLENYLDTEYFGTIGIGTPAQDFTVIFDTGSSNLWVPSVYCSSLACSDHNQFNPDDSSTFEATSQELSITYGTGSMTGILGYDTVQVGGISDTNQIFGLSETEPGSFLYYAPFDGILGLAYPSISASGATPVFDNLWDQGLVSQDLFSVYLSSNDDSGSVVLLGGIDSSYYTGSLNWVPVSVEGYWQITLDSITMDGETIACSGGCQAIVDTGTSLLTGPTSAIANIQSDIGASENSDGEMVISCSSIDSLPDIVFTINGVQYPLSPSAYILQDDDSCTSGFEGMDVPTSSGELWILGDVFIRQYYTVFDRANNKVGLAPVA

With Insulin, the “Rate constant of INS degradation, simulated intestinal fluid” value in series [1] is 0.1980 min⁻¹. Besides, in series [2] (SC injection, 5 IU/kg), the “AAC0–8h (area above the blood glucose level curve, % of initial, 0–8 h)” value is 439.29 ± 30.00 %·h; the “BGLmin (minimum blood glucose level, % of initial levels)” value was determined as 22.78 ± 1.92%; the “Tmin (time to reach BGLmin)” value is listed as 3.20 ± 0.84 h. Also, in series [2] (oral gavage, 50 IU/kg), the “AAC0–8h (area above the blood glucose level curve, % of initial, 0–8 h)” value is “–44.47 ± 38.33 %·h”; the “BGLmin (minimum blood glucose level, % of initial levels)” value stood at 97.92 ± 1.23%; the “Tmin (time to reach BGLmin)” value is listed as 2.75 ± 0.25 h. Also, in series [2] (oral, 50 IU/kg), the “antidiabetic effects (blood glucose level versus time)” value is reported as “negligible”. Further, the “log P” value in series [3] is reported as “–1.61”. Moreover, in series [4] (0–120 min, first-order fit), the “Rate constant of INS degradation, simulated gastric fluid” value is 0.1854 min⁻¹. For the same substance, the “Half-life of INS, simulated gastric fluid” value in series [4] is given as 3.74 min.
